Data reported in PubChem BioAssay (NCI).
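Where inhibition never reached the appropriate level, the endpoint shown equals the highest concentration tested. Otherwise, values were interpolated linearly from a five-concentration, 48-hour dose response in 96-well plates. GI50 marks 50% less growth. The concentration for full growth arrest is given as TGI.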

Columns and labels:
Assay in all cases: NCI-60 cell line screen, 48 h
[1] = tested on: 786-0 renal
[2] = tested on: A498 renal
[3] = tested on: A549 NSCLC
[4] = tested on: ACHN renal
[5] = tested on: BT-549 breast
[6] = tested on: CAKI-1 renal
[7] = tested on: CCRF-CEM leukemia
[8] = tested on: COLO 205 colon
[9] = tested on: DU-145 prostate
[10] = tested on: EKVX NSCLC
[11] = tested on: HCC-2998 colon
[12] = tested on: HCT-116 colon
[13] = tested on: HCT-15 colon
[14] = tested on: HL-60(TB) leukemia
[15] = tested on: HOP-62 NSCLC
[16] = tested on: HOP-92 NSCLC
[17] = tested on: HS 578T breast
[18] = tested on: HT29 colon
[19] = tested on: IGROV1 ovarian
[20] = tested on: K-562 leukemia
[21] = tested on: KM12 colon
[22] = tested on: LOX IMVI melanoma
[23] = tested on: M14 melanoma
[24] = tested on: MCF7 breast
[25] = tested on: MDA-MB-231 breast
[26] = tested on: MDA-MB-435
[27] = tested on: MOLT-4 leukemia
[28] = tested on: NCI-H226 lung
[29] = tested on: NCI-H23 lung
[30] = tested on: NCI-H460 lung
[31] = tested on: NCI-H522 lung
[32] = tested on: NCI/ADR-RES ovarian
[33] = tested on: OVCAR-4 ovarian
[34] = tested on: OVCAR-5 ovarian
[35] = tested on: OVCAR-8 ovarian
[36] = tested on: PC-3 prostate
[37] = tested on: RPMI-8226 leukemia
[38] = tested on: RXF 393 renal
[39] = tested on: SF-268 CNS
[40] = tested on: SF-295 CNS
[41] = tested on: SF-539 CNS
[42] = tested on: SK-MEL-2 melanoma
[43] = tested on: SK-MEL-28 melanoma
[44] = tested on: SK-MEL-5 melanoma
[45] = tested on: SK-OV-3 ovarian
[46] = tested on: SN12C renal
[47] = tested on: SNB-19 CNS
[48] = tested on: SNB-75 CNS
[49] = tested on: SR leukemia
[50] = tested on: SW-620 colon
[51] = tested on: T-47D breast
[52] = tested on: TK-10 renal
[53] = tested on: U251 CNS
[54] = tested on: UACC-257 melanoma
[55] = tested on: UACC-62 melanoma
[56] = tested on: UO-31 renal

In the case of `COc1ccc(Cn2cc3c(c2-c2cc(OC)c(OC)c(OC)c2)CCCc2cnoc2-3)cc1N`, the GI50 [1] is reported as 823 nM, the TGI [1] is reported as over 100000 nM and the GI50 [2] is reported as 407 nM. It also gave a TGI [2] of 2880 nM, a GI50 [3] of 1450 nM and a TGI [3] of over 100000 nM. It also gave a GI50 [4] of 669 nM, a TGI [4] of over 100000 nM and a GI50 [5] of 436 nM. For the same compound, the TGI [5] was 2730 nM, the GI50 [6] was 491 nM and the TGI [6] was over 100000 nM. The GI50 [7] was 430 nM, the TGI [7] was over 100000 nM and the GI50 [8] was 532 nM. The TGI [8] was 2140 nM, the GI50 [9] was 1450 nM and the TGI [9] was over 100000 nM. The GI50 [10] was 2430 nM, the TGI [10] was over 100000 nM and the GI50 [11] was 1670 nM. The TGI [11] was over 32000 nM, the GI50 [12] was 423 nM and the TGI [12] was over 100000 nM. For the same compound, the GI50 [13] was 543 nM, the TGI [13] was over 100000 nM and the GI50 [14] was 333 nM. For the same compound, the GI50 [15] was 814 nM, the TGI [15] was over 100000 nM and the GI50 [16] was 432 nM. For the same compound, the TGI [16] was 4820 nM, the GI50 [17] was 404 nM and the TGI [17] was 6400 nM. For the same compound, the GI50 [18] was 442 nM, the TGI [18] was over 100000 nM and the GI50 [19] was 1040 nM. The TGI [19] was over 100000 nM, the GI50 [20] was 404 nM and the TGI [20] was over 100000 nM. The GI50 [21] was 632 nM, the TGI [21] was over 100000 nM and the GI50 [22] was 643 nM. The TGI [22] was over 100000 nM, the GI50 [23] was 501 nM and the TGI [23] was over 100000 nM. It also gave a GI50 [24] of 392 nM, a TGI [24] of over 100000 nM and a GI50 [25] of 1580 nM. The TGI [25] was over 100000 nM, the GI50 [26] was 240 nM and the TGI [26] was 633 nM. The GI50 [27] was 1110 nM, the TGI [27] was over 100000 nM and the GI50 [28] was 1590 nM. The TGI [28] was over 100000 nM, the GI50 [29] was 1750 nM and the TGI [29] was over 100000 nM. The GI50 [30] was 410 nM, the TGI [30] was over 100000 nM and the GI50 [31] was 306 nM. It also gave a TGI [31] of 1530 nM, a GI50 [32] of 699 nM and a TGI [32] of over 100000 nM. For the same compound, the GI50 [33] was 5130 nM, the TGI [33] was over 100000 nM and the GI50 [34] was 1840 nM. The TGI [34] was over 100000 nM, the GI50 [35] was 2140 nM and the TGI [35] was over 100000 nM. The GI50 [36] was 463 nM, the TGI [36] was over 100000 nM and the GI50 [37] was 935 nM. The TGI [37] was over 33400 nM, the GI50 [38] was 412 nM and the TGI [38] was 3700 nM. It also gave a GI50 [39] of 1140 nM, a TGI [39] of over 100000 nM and a GI50 [40] of 468 nM. It also gave a TGI [40] of over 100000 nM, a GI50 [41] of 426 nM and a TGI [41] of 4320 nM. The GI50 [42] was 651 nM, the TGI [42] was over 100000 nM and the GI50 [43] was 3050 nM. For the same compound, the TGI [43] was over 67700 nM, the GI50 [44] was 1010 nM and the TGI [44] was over 37200 nM. It also gave a GI50 [45] of 957 nM, a TGI [45] of over 100000 nM and a GI50 [46] of 1750 nM. The TGI [46] was over 100000 nM, the GI50 [47] was 734 nM and the TGI [47] was over 100000 nM. For the same compound, the GI50 [48] was 384 nM, the TGI [48] was 9220 nM and the GI50 [49] was 405 nM. It also gave a TGI [49] of over 100000 nM, a GI50 [50] of 449 nM and a TGI [50] of over 100000 nM. For the same compound, the GI50 [51] was 590 nM, the TGI [51] was over 100000 nM and the GI50 [52] was 98300 nM. It also gave a TGI [52] of over 100000 nM, a GI50 [53] of 768 nM and a TGI [53] of over 100000 nM. It also gave a GI50 [54] of 578 nM, a TGI [54] of over 100000 nM and a GI50 [55] of 489 nM. It also gave a TGI [55] of over 100000 nM, a GI50 [56] of 761 nM and a TGI [56] of over 100000 nM.
